These results are taken from ChEMBL document CHEMBL1148635, “Discovery, structure-activity relationship, and pharmacological evaluation of (5-substituted-pyrrolidinyl-2-carbonyl)-2-cyanopyrrolidines as potent dipeptidyl peptidase IV inhibitors” (J Med Chem, 2006).

Series [1] can be described thus: Cmax in Sprague-Dawley rat at 5 mg/kg, po. In kind it is ADME, organism-based. Also on record: dose 5 mg/kg, route oral. Conditions: in vivo; call rule not given here.
Series [2] addresses Dipeptidyl peptidase 2 (Homo sapiens, UniProt Q9UHL4). Description: Inhibition of DPP7 by tight-binding assay.
The nature of series [3]: Half life in Sprague-Dawley rat at 5 mg/kg, po. It is filed as ADME, organism-based. Also on record: dose 5 mg/kg, route oral. The note with it: in vivo.
Series [4] has as its system Rattus norvegicus. The series can be described thus: AUC in Sprague-Dawley rat at 5 mg/kg, po. In kind it is ADME, organism-based, Plasma. Also on record: dose 5 mg/kg, route oral. The note with it: in vivo.
Series [5] in a line: Volume of distribution in Sprague-Dawley rat at 5 mg/kg. Conditions: in vivo, read-out: Vdss. In kind it is ADME, organism-based. Also on record: dose 5 mg/kg.
Series [6] in a line: Plasma clearance in Sprague-Dawley rat at 5 mg/kg, iv. In kind it is ADME, organism-based. Further details: dose 5 mg/kg, route intravenous.
Series [7] is described as follows: Half life in phosphate buffer at pH 7.4 at 37 degreeC. It is filed as ADME.
Series [8] in a line: Oral bioavailability in Sprague-Dawley rat at 5 mg/kg. It is filed as ADME, organism-based. Conditions: in vivo.
Series [9] has as its target T1, Dipeptidyl peptidase 4 (Homo sapiens, UniProt P27487). The series can be described thus: Inhibition of human recombinant DPP4.
For series [10], the target named is T1, Dipeptidyl peptidase 4. Description: Inhibition of human recombinant DPP4 by tight-binding assay in presence of 10% rat plasma. It is filed as cell-free.
The target of series [11] is T1, Dipeptidyl peptidase 4. Description: Inhibition of human recombinant DPP4 by tight-binding assay.
Series [12] has as its target T2, Prolyl endopeptidase (Homo sapiens, UniProt P48147).
T2 sequence (P48147 whole entry): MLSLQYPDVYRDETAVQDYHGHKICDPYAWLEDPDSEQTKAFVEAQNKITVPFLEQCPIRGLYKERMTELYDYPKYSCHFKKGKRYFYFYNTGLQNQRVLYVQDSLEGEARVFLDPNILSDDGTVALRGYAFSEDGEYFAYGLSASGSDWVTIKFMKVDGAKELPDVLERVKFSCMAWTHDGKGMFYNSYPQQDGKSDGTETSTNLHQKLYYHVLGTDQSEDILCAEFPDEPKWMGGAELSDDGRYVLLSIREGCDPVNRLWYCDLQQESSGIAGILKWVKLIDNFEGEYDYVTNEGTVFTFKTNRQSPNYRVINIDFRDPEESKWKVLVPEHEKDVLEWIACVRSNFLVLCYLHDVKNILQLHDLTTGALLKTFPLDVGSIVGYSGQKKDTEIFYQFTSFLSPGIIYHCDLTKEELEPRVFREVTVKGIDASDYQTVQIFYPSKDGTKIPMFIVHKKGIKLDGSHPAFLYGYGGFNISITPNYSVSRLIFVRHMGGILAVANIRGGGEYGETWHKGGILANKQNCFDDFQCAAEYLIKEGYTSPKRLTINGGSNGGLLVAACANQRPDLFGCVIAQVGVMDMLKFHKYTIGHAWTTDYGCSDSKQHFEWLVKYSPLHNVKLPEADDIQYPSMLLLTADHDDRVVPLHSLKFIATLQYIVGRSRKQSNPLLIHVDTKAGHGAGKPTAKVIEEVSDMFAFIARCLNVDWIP
Description: Inhibition of POP by tight-binding assay.

The test system of series [13] is Rattus norvegicus. The series can be described thus: Lowering of blood glucose level in ZDF rat at 0.1 mg/kg, po by oral glucose tolerance test. It is filed as functional.
In series [14] the test system is Rattus norvegicus. The series can be described thus: Lowering of blood glucose level in ZDF rat at 1 mg/kg, po by oral glucose tolerance test. It is filed as functional.
Series [15] concerns Rattus norvegicus. Description: Lowering of blood glucose level in ZDF rat at 3 mg/kg, po by oral glucose tolerance test. It is filed as functional.

T1 sequence (P27487 whole entry): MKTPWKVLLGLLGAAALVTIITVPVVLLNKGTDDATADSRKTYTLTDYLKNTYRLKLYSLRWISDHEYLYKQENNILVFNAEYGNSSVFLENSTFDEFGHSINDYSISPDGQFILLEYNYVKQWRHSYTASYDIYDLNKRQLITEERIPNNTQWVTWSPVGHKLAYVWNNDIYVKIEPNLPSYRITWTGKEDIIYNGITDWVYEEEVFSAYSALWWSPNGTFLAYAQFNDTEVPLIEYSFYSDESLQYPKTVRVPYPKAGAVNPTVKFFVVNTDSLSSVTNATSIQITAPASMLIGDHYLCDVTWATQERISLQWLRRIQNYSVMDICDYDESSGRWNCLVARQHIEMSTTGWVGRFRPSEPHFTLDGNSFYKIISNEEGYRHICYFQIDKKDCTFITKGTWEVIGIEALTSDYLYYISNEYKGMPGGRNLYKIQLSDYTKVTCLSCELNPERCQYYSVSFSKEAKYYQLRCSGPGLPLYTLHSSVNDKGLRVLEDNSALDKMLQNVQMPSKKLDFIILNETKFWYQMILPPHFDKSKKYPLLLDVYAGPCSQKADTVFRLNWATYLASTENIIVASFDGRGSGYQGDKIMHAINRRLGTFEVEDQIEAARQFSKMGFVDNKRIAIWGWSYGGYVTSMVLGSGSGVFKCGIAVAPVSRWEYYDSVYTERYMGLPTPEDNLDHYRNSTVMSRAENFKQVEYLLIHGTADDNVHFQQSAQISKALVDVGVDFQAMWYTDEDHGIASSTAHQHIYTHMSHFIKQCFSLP

By Cmax is commonly meant the highest concentration seen after dosing. By Ki is commonly meant a dissociation constant, usually derived from enzyme kinetics or from competition with a known ligand. A word on the half-life: it is how long it takes for the measured level to halve. Lower therefore signals rapid decline. By AUC is commonly meant the area under the concentration-time curve, a measure of exposure. Higher therefore signals more exposure. One may read the clearance as the volume of plasma or blood freed of the substance per unit of time. As a reminder, the bioavailability is dose-corrected exposure relative to a reference, in per cent. The low end stands for little systemic uptake, the high end for much systemic uptake. `N#C[C@@H]1CCCN1C(=O)[C@@H]1CC[C@H](COc2cc(C(=O)O)ccc2Cl)N1` (mixture of isomers) had a Cmax in [1] of 146 ng/mL. The Ki in series [2] is above 3000 nM. The values for the half-life in [3] and in series [7] were 6.9 h and above 100 h, respectively. Moreover, the AUC in series [4] turned out to be 1280 ng·h/mL. Further, the Vd in [5] came to 0.35 L/kg. This compound had a clearance in series [6] of 4.83 mL/min/kg. The bioavailability in series [8] was 7%.
On to `CC(C)[C@H]1CC[C@@H](C(=O)N2CCC[C@H]2C#N)N1` (mixture of isomers), for which the half-life in series [7] was above 100 h.
With `N#C[C@@H]1CCCN1C(=O)[C@@H]1CC[C@H](COc2ccccc2Cc2ccccc2)N1`, the Ki in [9] is above 3000 nM; in series [10], “Not Active”; in [11], “Not Active”.
For the compound `CC(C)(C)c1ccccc1OC[C@H]1CC[C@@H](C(=O)N2CCC[C@H]2C#N)N1`, the Cmax in series [1] was determined as 25.2 ng/mL. Moreover, the figures for the half-life in series [3] and in series [7] were 1.3 h and 41.2 h, respectively. In series [4], this compound showed an AUC of 28 ng·h/mL. Moreover, the Vd in series [5] is 1.14 L/kg. For the same compound, the clearance in [6] is 85 mL/min/kg. In addition, the bioavailability in [8] was found to be 3%.
Compound `N#C[C@@H]1CCCN1C(=O)[C@@H]1CC[C@H](COc2cc(C(=O)O)cnc2Cl)N1` returned a peak concentration (Cmax) in series [1] of 29 ng/mL. For the same compound, the Ki was above 3000 nM in [2] and 666 nM in [12]. This compound gave a half-life in [3] of 1.2 h. In series [4], the AUC was 87 ng·h/mL. Also, the Vd in series [5] amounted to 0.35 L/kg. In [6], the clearance is 16 mL/min/kg. The compound further yielded a bioavailability in [8] of 2%.
In series [7], `N#C[C@@H]1CCCN1C(=O)[C@@H]1CC[C@H](COc2ccc(C(=O)O)cc2Cl)N1` showed a half-life of 19.8 h. The inhibition constant (Ki) in [12] amounted to 1740 nM.
For the compound `N#C[C@@H]1CCCN1C(=O)[C@@H]1CC[C@H](COc2cc([N+](=O)[O-])c(Cl)cc2Cl)N1`, the highest concentration (Cmax) in series [1] was found to be 805 ng/mL. In addition, the half-life in [3] is 3.6 h. In addition, in [4], the exposure (AUC) stood at 2990 ng·h/mL. Also, in [5], the Vd came out at 0.22 L/kg. In addition, the clearance in series [6] was 3.83 mL/min/kg. In addition, in series [8], the bioavailability was 13.5%.
As for `CC(C)(C)c1cc(C(=O)O)ccc1OC[C@H]1CC[C@@H](C(=O)N2CCC[C@H]2C#N)N1`, the Cmax in series [1] was found to be 5580 ng/mL. Moreover, the half-life is 4.2 h in series [3] and 65.4 h in series [7]. Moreover, in series [4], the AUC was found to be 9630 ng·h/mL. Besides, the Vd in series [5] was 1 L/kg. Besides, in series [6], the clearance was 5.33 mL/min/kg. The same compound yielded a bioavailability in series [8] of 63%.
In series [7], `CC[C@H]1CC[C@@H](C(=O)N2CCC[C@H]2C#N)N1` gave a half-life of 16.4 h.
`CC(C)c1cc(C(=O)O)ccc1OC[C@H]1CC[C@@H](C(=O)N2CCC[C@H]2C#N)N1` displayed a Cmax in series [1] of 2470 ng/mL. Moreover, the Activity in series [13] is given as 3%; in [14] it was 17%; in [15], 30%. The Ki in series [2] was above 3000 nM. Moreover, the half-life in series [3] is 3.5 h. The same compound had an AUC in series [4] of 4110 ng·h/mL. For the same compound, the Vd in [5] was 0.73 L/kg. Also, in [6], the clearance is 7 mL/min/kg. The bioavailability in [8] stood at 34%.
On to `N#C[C@@H]1CCCN1C(=O)[C@@H]1CC[C@H](COc2ccccc2Cl)N1`, for which the affinity in series [12], expressed as Ki, was 2760 nM.
In the case of `N#Cc1ccc(OC[C@H]2CC[C@@H](C(=O)N3CCC[C@H]3C#N)N2)c(Cl)c1`, in [1], the Cmax was 4540 ng/mL. In addition, the half-life was 1.5 h in [3] and 16.7 h in [7]. Further, the AUC in series [4] is 3140 ng·h/mL. Further, the Vd in series [5] worked out at 0.2 L/kg. In addition, the clearance in series [6] is 10.5 mL/min/kg. Also, the bioavailability in series [8] turned out to be 39%.
Compound `N#C[C@@H]1CCCN1C(=O)[C@@H]1CC[C@H](COc2ccc(Br)cc2)N1` had a half-life in series [7] of 7.8 h.
`N#C[C@@H]1CCCN1C(=O)[C@@H]1CC[C@H](COc2cc(C(=O)O)c[n+]([O-])c2Cl)N1`: the Ki was above 3000 nM in series [2] and 1530 nM in series [12].
In the case of `N#C[C@@H]1CCCN1C(=O)[C@@H]1CC[C@H](COc2ccc3ccccc3c2)N1`, the half-life in [7] was 10.8 h.
For `C[C@H]1CC[C@@H](C(=O)N2CCC[C@H]2C#N)N1`, the Cmax in series [1] came to 752 ng/mL. For the same compound, the results for the half-life in series [3] and in series [7] were 1.1 h and 6.5 h, respectively. The same compound returned an AUC in [4] of 652 ng·h/mL. The Vd in series [5] was found to be 13.5 L/kg. For the same compound, the clearance in series [6] was 74.8 mL/min/kg. In series [8], this compound showed a bioavailability of 58%.
As for `N#C[C@@H]1CCCN1C(=O)[C@@H]1CCCN1`, the half-life in [7] is 1.3 h.
For `CS(=O)(=O)c1ccc(OC[C@H]2CC[C@@H](C(=O)N3CCC[C@H]3C#N)N2)c(Br)c1`, the highest level in series [1] (Cmax) was 3730 ng/mL. In addition, the half-life in series [3] was 2.2 h. Also, the AUC in [4] amounted to 2920 ng·h/mL. Further, the Vd in series [5] was 0.3 L/kg. The compound also gave a clearance in series [6] of 14 mL/min/kg. In addition, the bioavailability in series [8] came to 40%.
